ChEMBL document CHEMBL5236579, “Hydrophobicity Determines the Bacterial Killing Rate of α-Helical Antimicrobial Peptides and Influences the Bacterial Resistance Development” (J Med Chem, 2022)
Converted amounts (≈) assume the structure as drawn. The source made the active and inactive calls. The calls are words filed in the database; no cut-off is given here. Where a SMILES comes first, the peptide text is derived from it.

Legend:
Staphylococcus aureus [1] = experiment: Antimicrobial activity against clinical isolates Staphylococcus aureus by two fold broth microdilution method; assay type: functional
Vibrio parahaemolyticus [2] = experiment: Bactericidal activity against Vibrio parahaemolyticus ATCC17802 assessed as killing rate at 0.5 X MIC by measuring time limit of detection by bacterial killing kinetic assay; assay type: functional
Staphylococcus aureus [3] = experiment: Antimicrobial activity against Staphylococcus aureus ATCC25923 by two fold broth microdilution method; assay type: functional
Escherichia coli = experiment: Antimicrobial activity against Escherichia coli ATCC27622 by two fold broth microdilution method; assay type: functional
Bacillus cereus = experiment: Antimicrobial activity against clinical isolates Bacillus cereus by two fold broth microdilution method; assay type: functional
Vibrio parahaemolyticus [4] = experiment: Antimicrobial activity against Vibrio parahaemolyticus ATCC17802 by two fold broth microdilution method; assay type: functional
Cell membrane = experiment: Induction of inner membrane permeabilization in Vibrio parahaemolyticus ATCC17802 assessed as increase in PI fluorescence intensity at 5 times MIC by propidium iodide penetration assay; assay type: cell membranes; conditions: time <= 200.0 min

MIC (Staphylococcus aureus [1]) | MIC (Staphylococcus aureus [3]; read-out: MIC) | MIC (Escherichia coli) | MIC (Bacillus cereus) | MIC (Staphylococcus aureus [3]) | Compound | Time (Vibrio parahaemolyticus [2]) | MIC (Vibrio parahaemolyticus [4]) | Activity (Cell membrane)
18.8 µg/mL (≈ 10.5 µM) | 9.38 µg/mL (≈ 5.24 µM) | 9.38 µg/mL (≈ 5.24 µM) | 18.8 µg/mL (≈ 10.5 µM) |  | CC[C@H](C)[C@H](NC(=O)[C@H](C)NC(=O)[C@H](CCCNC(=N)N)NC(=O)[C@H](C)NC(=O)[C@H](CC(C)C)NC(=O)[C@H](CCCCN)NC(=O)[C@H](CCCCN)NC(=O)[C@H](Cc1ccccc1)NC(=O)[C@H](CC(C)C)NC(=O)CNC(=O)[C@H](C)N)C(=O)N[C@@H](C)C(=O)N[C@@H](CCCCN)C(=O)NCC(=O)N[C@@H](Cc1ccccc1)C(=O)N[C@@H](CCCCN)C(=O)N[C@@H](C)C(=O)O (H-AGLFKKLARAIAKGFKA-OH) | >180 min | 4.69 µg/mL (≈ 2.62 µM) | 
18.8 µg/mL (≈ 9.92 µM) | 4.69 µg/mL (≈ 2.48 µM) | 9.38 µg/mL (≈ 4.96 µM) | 9.38 µg/mL (≈ 4.96 µM) |  | CC[C@H](C)[C@H](NC(=O)[C@H](C)NC(=O)[C@H](CCCNC(=N)N)NC(=O)[C@H](C)NC(=O)[C@H](CC(C)C)NC(=O)[C@H](CCCCN)NC(=O)[C@H](CCCCN)NC(=O)[C@H](Cc1ccccc1)NC(=O)[C@H](CC(C)C)NC(=O)CNC(=O)[C@H](C)N)C(=O)N[C@@H](CCCCN)C(=O)N[C@@H](CCCCN)C(=O)NCC(=O)N[C@@H](Cc1ccccc1)C(=O)N[C@@H](CCCCN)C(=O)N[C@@H](CC(C)C)C(=O)O (H-AGLFKKLARAIKKGFKL-OH) | >180 min | 4.69 µg/mL (≈ 2.48 µM) | Active
> 200 µg/mL |  | > 200 µg/mL | > 200 µg/mL | > 200 µg/mL | CC[C@H](C)[C@H](NC(=O)[C@H](CC(C)C)NC(=O)[C@H](CCCNC(=N)N)NC(=O)[C@H](CC(C)C)NC(=O)[C@H](CC(C)C)NC(=O)[C@H](CC(C)C)NC(=O)[C@H](CCCCN)NC(=O)[C@H](Cc1ccccc1)NC(=O)[C@H](CC(C)C)NC(=O)CNC(=O)[C@@H](N)CC(C)C)C(=O)N[C@@H](CC(C)C)C(=O)N[C@@H](CCCCN)C(=O)NCC(=O)N[C@@H](Cc1ccccc1)C(=O)N[C@@H](CCCCN)C(=O)N[C@@H](CC(C)C)C(=O)O (H-LGLFKLLLRLILKGFKL-OH) |  | > 200 µg/mL | 
> 200 µg/mL |  | > 200 µg/mL | > 200 µg/mL | > 200 µg/mL | CC[C@H](C)[C@H](NC(=O)[C@H](CC(C)C)NC(=O)[C@H](CCCNC(=N)N)NC(=O)[C@H](CC(C)C)NC(=O)[C@H](CC(C)C)NC(=O)[C@H](CC(C)C)NC(=O)[C@H](CC(C)C)NC(=O)[C@H](Cc1ccccc1)NC(=O)[C@H](CC(C)C)NC(=O)CNC(=O)[C@@H](N)CC(C)C)C(=O)N[C@@H](CC(C)C)C(=O)N[C@@H](CCCCN)C(=O)NCC(=O)N[C@@H](Cc1ccccc1)C(=O)N[C@@H](CCCCN)C(=O)N[C@@H](CC(C)C)C(=O)O (H-LGLFLLLLRLILKGFKL-OH) |  | > 200 µg/mL | 
18.8 µg/mL (≈ 9.42 µM) | 9.38 µg/mL (≈ 4.71 µM) | 9.38 µg/mL (≈ 4.71 µM) | 18.8 µg/mL (≈ 9.42 µM) |  | CC[C@H](C)[C@H](NC(=O)[C@H](C)NC(=O)[C@H](CCCNC(=N)N)NC(=O)[C@H](C)NC(=O)[C@H](CC(C)C)NC(=O)[C@H](CCCCN)NC(=O)[C@H](CCCCN)NC(=O)[C@H](Cc1ccccc1)NC(=O)[C@H](CC(C)C)NC(=O)CNC(=O)[C@@H](N)CCCNC(=N)N)C(=O)N[C@@H](CCCCN)C(=O)N[C@@H](CCCCN)C(=O)NCC(=O)N[C@@H](Cc1ccccc1)C(=O)N[C@@H](CCCCN)C(=O)N[C@@H](CCCCN)C(=O)O (H-RGLFKKLARAIKKGFKK-OH) | >180 min | 4.69 µg/mL (≈ 2.36 µM) | Active
18.8 µg/mL (≈ 8.8 µM) | 4.69 µg/mL (≈ 2.2 µM) | 18.8 µg/mL (≈ 8.8 µM) | 9.38 µg/mL (≈ 4.4 µM) |  | CC[C@H](C)[C@H](NC(=O)[C@H](CCCCN)NC(=O)[C@H](CCCNC(=N)N)NC(=O)[C@H](CCCNC(=N)N)NC(=O)[C@H](CC(C)C)NC(=O)[C@H](CCCCN)NC(=O)[C@H](CCCCN)NC(=O)[C@H](Cc1ccccc1)NC(=O)[C@H](CC(C)C)NC(=O)CNC(=O)[C@@H](N)CCCNC(=N)N)C(=O)N[C@@H](CCCCN)C(=O)N[C@@H](CCCCN)C(=O)NCC(=O)N[C@@H](Cc1ccccc1)C(=O)N[C@@H](CCCCN)C(=O)N[C@@H](CCCCN)C(=O)O (H-RGLFKKLRRKIKKGFKK-OH) | >180 min | 4.69 µg/mL (≈ 2.2 µM) | Active
9.38 µg/mL (≈ 2.13 µM) | 4.69 µg/mL (≈ 1.07 µM) | 9.38 µg/mL (≈ 2.13 µM) | 4.69 µg/mL (≈ 1.07 µM) |  | CC[C@H](C)[C@H](NC(=O)[C@H](CCCCN)NC(=O)[C@H](CCCNC(=N)N)NC(=O)[C@H](CCCNC(=N)N)NC(=O)[C@H](CC(C)C)NC(=O)[C@H](CCCCN)NC(=O)[C@H](CCCCN)NC(=O)[C@H](Cc1ccccc1)NC(=O)[C@H](CC(C)C)NC(=O)CNC(=O)[C@H](CCCNC(=N)N)NC(=O)[C@@H](N)CCCNC(=N)N)C(=O)N[C@@H](CCCCN)C(=O)N[C@@H](CCCCN)C(=O)NCC(=O)N[C@@H](Cc1ccccc1)C(=O)N[C@@H](CCCCN)C(=O)N[C@@H](CCCCN)C(=O)N[C@H](C(=O)N[C@@H](Cc1ccccc1)C(=O)N[C@@H](CCCCN)C(=O)N[C@@H](CCCNC(=N)N)C(=O)N[C@@H](CC(C)C)C(=O)N1CCC[C@H]1C(=O)N1CCC[C@H]1C(=O)N[C@H](C(=O)NCC(=O)N[C@H](C(=O)NCC(=O)N[C@H](C(=O)N[C@@H](CO)C(=O)N[C@H](C(=O)N1CCC[C@H]1C(=O)N[C@@H](CC(C)C)C(=O)N[C@@H](C)C(=O)NCC(=O)N[C@@H](CCCNC(=N)N)C(=O)N[C@@H](CCCNC(=N)N)C(=O)O)[C@@H](C)CC)C(C)C)C(C)C)C(C)C)[C@@H](C)CC (H-RRGLFKKLRRKIKKGFKKIFKRLPPVGVGVSIPLAGRR-OH) | 120 min | 4.69 µg/mL (≈ 1.07 µM) | 
9.38 µg/mL (≈ 3.67 µM) | 2.34 µg/mL (≈ 0.915 µM) | 9.38 µg/mL (≈ 3.67 µM) | 9.38 µg/mL (≈ 3.67 µM) |  | CC[C@H](C)[C@H](NC(=O)[C@H](CCCCN)NC(=O)[C@H](CC(C)C)NC(=O)[C@H](C)NC(=O)CNC(=O)[C@H](CC(N)=O)NC(=O)[C@H](CC(C)C)NC(=O)[C@@H](NC(=O)[C@H](CCCCN)NC(=O)[C@H](CCCCN)NC(=O)[C@H](Cc1c[nH]c2ccccc12)NC(=O)[C@H](Cc1ccccc1)NC(=O)[C@H](CCCCN)NC(=O)[C@H](CCCNC(=N)N)NC(=O)[C@H](CCCNC(=N)N)NC(=O)[C@@H](N)[C@@H](C)O)C(C)C)C(=O)N[C@@H](C)C(=O)N1CCC[C@H]1C(=O)N[C@@H](Cc1ccccc1)C(=O)N[C@@H](CC(C)C)C(=O)N[C@@H](CC(C)C)C(=O)NCC(=O)O (H-TRRKFWKKVLNGALKIAPFLLG-OH) | 15 min | 4.69 µg/mL (≈ 1.83 µM) | 

Compound | MIC (Staphylococcus aureus [1]) | MIC (Staphylococcus aureus [3]; read-out: MIC) | MIC (Escherichia coli) | MIC (Bacillus cereus) | MIC (Staphylococcus aureus [3]) | Time (Vibrio parahaemolyticus [2]) | MIC (Vibrio parahaemolyticus [4]) | Activity (Cell membrane)
CN[C@H](CC(C)C)C(=O)N[C@H]1C(=O)N[C@@H](CC(N)=O)C(=O)N[C@H]2C(=O)N[C@H]3C(=O)N[C@H](C(=O)N[C@H](C(=O)O)c4cc(O)cc(O)c4-c4cc3ccc4O)[C@H](O)c3ccc(c(Cl)c3)Oc3cc2cc(c3O[C@@H]2O[C@H](CO)[C@@H](O)[C@H](O)[C@H]2O[C@H]2C[C@](C)(N)[C@H](O)[C@H](C)O2)Oc2ccc(cc2Cl)[C@H]1O [VANCOMYCIN] | > 200 µg/mL | 0.59 µg/mL (≈ 0.407 µM) | 75 µg/mL (≈ 51.8 µM) | > 200 µg/mL |  |  | 75 µg/mL (≈ 51.8 µM) | 
